Assay results taken from article PMC8126724, “Infant-Associated Bifidobacterial β-Galactosidases and Their Ability to Synthesize Galacto-Oligosaccharides” (Frontiers in Microbiology, 2021).

Legend:
BgaE = system: T1, BgaE; experiment: o-nitrophenol release, A420; format: biochemical, Bifidobacterium longum subsp. longum; conditions: 0.1 M sodium acetate pH 6.5, 40 °C; unit mM, not in table
T1 construct: gene B8809_0611; tetramer
From the text: o-nitrophenol release, A420 on BgaE

BgaD = system: T2, BgaD; experiment: o-nitrophenol release, A420; format: biochemical, Bifidobacterium longum subsp. longum; conditions: 0.1 M sodium acetate pH 6.5, 40 °C; unit mM, not in table
T2 construct: gene B8809_0415; His6-tagged, expressed in Lactococcus lactis (pNZ8150), Ni-purified; trimer
From the text: o-nitrophenol release, A420 on BgaD

Km (BgaE): 11.1 mM
Km (BgaD): 17 mM
SMILES: O=[N+]([O-])c1ccccc1O[C@@H]1O[C@H](CO)[C@H](O)[C@H](O)[C@H]1O [ONPG]
